The nature of data set [1]: Formulation of stable concentrated imatinib solutions in different solvents (Examples 1-4). Particulars: room temperature, one hour.
The next data set relates to PAH patients. Particulars: oral; phase II, 59 patients; cited from earlier work.
A short description of data set [2]: In vitro nebulization feasibility, Medspray wet aerosol inhaler single nozzle unit (Example 5). The data set is classed as physicochemical. The conditions noted are these: Medspray nozzle pore size 1.9 μm. The protocol:
In an in vitro nebulization study, the feasibility to nebulize different imatinib mesylate solutions by the Medspray™ wet aerosol inhaler was evaluated. A 1 ml syringe was filled with the formulation to be tested, a single nozzle unit of Medspray™ wet aerosol inhaler was then fixed on the syringe by a luer adapter. The nozzle pore size was 1.9 μm. The aerosol was produced by pressing the piston of the syringe manually, thereby forcing the solution through the nozzle pores. […] When using ethanol 10% (v/v) or glycerol 1% (v/v), solutions with a concentration of 240 mg/ml were nebulizable; a mixture of ethanol 10% (v/v) and glycerol 1% (v/v) further increased the maximum imatinib concentration of the solution to 250 mg/ml capable of being nebulized.

For data set [3] the following is noted: cited from earlier work.
For a further data set, the system named is PAH-patients. The conditions noted are these: oral, cited from earlier work.
Where [4] appears, read: 24-week trial, 202 PAH-patients.

“Also recorded” adds a separate entry of the source. Where a name gives a salt, the structure may show the parent alone.

For `Cc1ccc(NC(=O)c2ccc(CN3CCN(C)CC3)cc2)cc1Nc1nccc(-c2cccnc2)n1` [Imatinib free base, 4-[(4-methylpiperazin-1-yl)methyl]-N-(4-methyl-3-{[4-(pyridin-3-yl)pyrimidin-2-yl]amino}phenyl)benzamide], in data set [1] (a. dest, NaCl 0.9%, citrate buffer 5%, urea 5%, ethanol 10%, glycerol 1%), the “imatinib concentration of stable solution that could be formulated” value is at most 5 mg/mL.

In the case of `Cc1ccc(NC(=O)c2ccc(CN3CCN(C)CC3)cc2)cc1Nc1nccc(-c2cccnc2)n1` [Imatinib mesylate], in the data set on PAH patients, the “change from baseline in the 6-minute-walk distance (primary endpoint)” value was “not meeting the primary endpoint” and the “pulmonary hemodynamics (secondary endpoint)” value is reported as “significantly improved”. The “maximum concentration capable of being nebulized” value in data set [2] (solvent a. dest) stood at 210 mg/mL. Besides, the “maximum imatinib concentration capable of being nebulized” value in data set [2] (solvent ethanol 10% (v/v) and glycerol 1% (v/v)) amounted to 250 mg/mL. In data set [2] (solvent ethanol 10% (v/v)), this molecule showed a concentration nebulizable of 240000 µg/mL. In data set [2] (solvent glycerol 1% (v/v)), this molecule showed a concentration nebulizable of 240000 µg/mL. Besides, the “inter-subject variation in pharmacokinetics” value in data set [3] (in vivo) is listed as “high”. Further, in data set [3] (oral), the bioavailability result is “almost complete”. For the same molecule, the “stability of resulting solutions” value in data set [1] (higher ionic strength solvents of Example 3) is given as “not stable”. Moreover, the “concentration of stable imatinib mesylate solution that could be formulated” value in data set [1] (higher ionic strength solvents: NaCl 0.9%, HCl/NaOH, citrate, HEPES, trometamol, PBS buffer) was under 50000 µg/mL. Moreover, in data set [1] (low ionic strength solvents of Example 4 (a. dest, ethanol, urea, glycerol, mannitol, glycols, ectoin)), the “concentration of stable imatinib mesylate solution that could be formulated” value was “up to 500 mg/ml”. In the data set on PAH-patients (setting [4]), the “6-minute walk distance (primary outcome)” value is listed as “significantly improving; also recorded: significantly improved” and the pulmonary vascular resistance entry is given as “significantly improved”.

For `Cc1ccc(NC(=O)c2ccc(CN3CCN(C)CC3)cc2)cc1Nc1nccc(-c2cccnc2)n1` [imatinib, 4-[(4-methylpiperazin-1-yl)methyl]-N-(4-methyl-3-{[4-(pyridin-3-yl)pyrimidin-2-yl]amino}phenyl)benzamide], the “adverse events, side effects and discontinuation” value in the data set on PAH-patients (study and open-label extension phase) was “severe adverse events, significant side effects, and a high discontinuation rate”.

These data come from patent US20250127716A1, “INHALED IMATINIB FOR TREATMENT OF PULMONARY HYPERTENSION” (JUSTUS-LIEBIG-UNIVERSITAET GIESSEN, priority 2022, published 2025).
